For test [1], the system named is LLC-PK1. In words: Renoprotective activity in pig LLC-PK1 cells assessed as reduction in cisplatin-induced toxicity by measuring cell viability after 24 hrs by MTT assay. Particulars: Sus scrofa. The format is functional, cell-based. A general note: Tetrazolium dyes change colour on reduction, which living cells bring about.
Test [2] has as its system LLC-PK1. In words: Renoprotective activity in pig LLC-PK1 cells assessed as reduction in cisplatin-induced toxicity by measuring cell viability at 5 to 50 uM after 24 hrs by MTT assay relative to control. It is filed as functional, Sus scrofa.
Test [3] has as its system LLC-PK1. In words: Inhibition of cisplatin-induced apoptosis in pig LLC-PK1 cells at 50 uM after 24 hrs by annexin V-Alexa Fluor 488/propidium iodide staining-based flow cytometry. The format is functional, cell-based. Particulars: Sus scrofa.
The test system of test [4] is LLC-PK1. In words: Inhibition of cisplatin-induced JNK phosphorylation in pig LLC-PK1 cells at 50 uM after 24 hrs by Western blotting method. It is filed as cell-based. The settings on record: Sus scrofa.
Test [5] relates to LLC-PK1. In words: Inhibition of cisplatin-induced p38 phosphorylation in pig LLC-PK1 cells at 50 uM after 24 hrs by Western blotting method. It is filed as cell-based. Particulars: Sus scrofa.
In test [6] the test system is LLC-PK1. In words: Inhibition of cisplatin-induced caspase-3 activity in pig LLC-PK1 cells assessed as decrease in cleaved caspase 3 level at 50 uM after 24 hrs by Western blotting method. It is filed as functional, cell-based. Particulars: Sus scrofa.

Active and inactive are the calls of the source. No cut-off for these calls is given here. Some results are limits rather than exact numbers.

Our source for the Activity and inhibition values is ChEMBL document CHEMBL3769378, “Protective effect and mechanism of action of saponins isolated from the seeds of gac (Momordica cochinchinensis Spreng.) against cisplatin-induced damage in LLC-PK1 kidney cells” (2016).

Turning to `C[C@H]1O[C@H](O[C@H]2[C@H](O)[C@@H](C(=O)O)O[C@@H](O[C@@H]3CC[C@]4(C)[C@H](CC[C@@]5(C)[C@H]4CC=C4[C@H]6CC(C)(C)CC[C@@]6(C(=O)O)[C@@H](O)C[C@@]45C)[C@@]3(C)C=O)[C@@H]2O[C@H]2O[C@@H](CO)[C@@H](O)[C@@H](O)[C@@H]2O)[C@@H](O)[C@@H](O)[C@@H]1O`, the Activity result with LLC-PK1 [1] is “Dose-dependent effect”; in the test on LLC-PK1 [2] it was “<=80%”. Further, the inhibition entry with LLC-PK1 [3], with LLC-PK1 [4], with LLC-PK1 [5] and in the test on LLC-PK1 [6] was “Active” each time.
As for `C[C@H]1O[C@H](O[C@H]2[C@H](O)[C@@H](C(=O)O)O[C@@H](O[C@@H]3CC[C@]4(C)[C@H](CC[C@@]5(C)[C@H]4CC=C4[C@H]6CC(C)(C)CC[C@@]6(C(=O)O)CC[C@@]45C)[C@@]3(C)C=O)[C@@H]2O[C@H]2O[C@@H](CO)[C@@H](O)[C@@H](O)[C@@H]2O)[C@@H](O)[C@@H](O)[C@@H]1O`, the values for the Activity result in the test on LLC-PK1 [1] and in the test with LLC-PK1 [2] were “Dose-dependent effect” and “<=80%”, respectively. The inhibition result with LLC-PK1 [3], in the test on LLC-PK1 [4], in the test on LLC-PK1 [5] and in the test with LLC-PK1 [6] was “Active” in each case.
As to `C[C@@H]1O[C@@H](O[C@H]2[C@H](O)[C@@H](C(=O)O)O[C@@H](O[C@@H]3CC[C@]4(C)[C@H](CC[C@@]5(C)[C@H]4CC=C4[C@H]6CC(C)(C)CC[C@@]6(C(=O)O[C@@H]6O[C@H](C)[C@H](O)[C@H](O)[C@H]6O[C@H]6O[C@H](C)[C@@H](O[C@H]7OC[C@H](O)[C@@H](O)[C@@H]7O)[C@H](O[C@H]7O[C@@H](CO)[C@H](O)[C@@H](O[C@@H]8OC[C@@H](O)[C@H](O)[C@H]8O)[C@@H]7O)[C@@H]6O)CC[C@@]45C)[C@@]3(C)C=O)[C@@H]2O[C@@H]2O[C@H](CO)[C@H](O)[C@H](O)[C@H]2O)[C@H](O)[C@H](O)[C@H]1O`, the outcome in the test with LLC-PK1 [2] (Sus scrofa) was Active.
